{"source": "patent US20250043290A1", "about": "“RNA SEQUENCES THAT INDUCE FLUORESCENCE OF SMALL MOLECULE FLUOROPHORES, MOLECULAR COMPLEXES, SENSORS, AND METHODS OF USE THEREOF” (CORNELL UNIVERSITY, priority 2021, published 2025)", "key": {"[1]": {"experiment": "Photophysical properties of DFAME, DFHO and RNA complexes (Beetroot study)", "type": "physicochemical", "excerpt": "dsDNA encoding the top-performing RNA sequences from the brightest bacterial colonies was PCR amplified from the purified plasmids. PCR products were subjected to gel electrophoresis in 2% TBE gel, and the PCR product band corresponding to the correct size was excised from gel and further purified with PCR purification columns (Qiagen) and in vitro transcribed using an AmpliScribe T7-Flash Transcription Kit (Epicenter). The resulting RNA was then purified using Zymo RNA concentrator columns and quantified by absorbance using a Thermo Scientific NanoDrop 2000 spectrophotometer. For absorption, excitation and emission spectra measurements, “excess RNA” conditions and limiting amount of fluorophore was used to ensure that no free fluorophore contributes to the absorbance or fluorescence signal. The RNA concentration used for fluorescence and absorbance measurements was 20 μM and 50 μM, respectively, while the dye concentration was 2 μM and 5 μM, respectively. All in vitro RNA properties were measured in 40 mM HEPES pH 7.4, 100 mM KCl, 5 mM MgCl2 buffer, unless specified.\nExtinction coefficient was calculated based on Beer's law. Briefly, absorbance spectrum of 5 μM DFAME, Beetroot-DFAME, or Corn-DFAME was measured using a Thermo Scientific NanoDrop 2000 spectrophotometer with cuvette capability. Extinction coefficient was calculated by dividing peak absorbance value by the concentration of fluorophore alone, or RNA-fluorophore complex.\nQuantum yield was determined by comparing the integral of the emission spectra for DFAME or RNA-DFAME complex with the corresponding integral obtained from Rhodamine B solution. These integral values were plotted against the absorbance values corresponding to the excitation wavelength. The slopes from the above plots were calculated for determining quantum yield. Quantum yield was calculated by multiplying the quantum yield of Rhodamine B by the slope of DFAME or RNA-DFAME complex, then divided by the slope of Rhodamine B."}, "[2]": {"system": "HEK293T cells", "experiment": "Cytotoxicity of DFAME, MTT assay after illumination", "type": "cell-based", "conditions": "10 μM, illuminated for 10 minutes", "procedure": "FIG. 31A is a graph showing the results of an experiment evaluating fluorescence of DFAME when mixed with cells. An important criteria for a fluorogenic dye is that it must have very low fluorescence when mixed with cells. To test this, 10 μM DFAME was incubated with cultured HEK293T cells and the fluorescence intensity of the DFAME-incubated cells was measured. […] Although the background fluorescence in cells induced by DFAME (n=48 cells) was higher than DFHO (n=47 cells) or DFHBI-1T (n=44 cells), it was reasoned that DFAME could be used if enough fluorogenic aptamer is used in cells. Data were collected from three independent cell cultures. Values are means±s.d. FIG. 31B is a graph showing the cytotoxicity of DFAME. To apply a fluorogenic dye in cells, it is critical that this dye has minimal cytotoxicity. To test the cytotoxicity of DFAME, HEK293T cells were first incubated with 10 μM DFAME, then illuminated for 10 minutes using a Nikon Intensilight C-HGFIE 130 W mercury lamp with the TRITC filter set. Control cells were illuminated under identical conditions either with 0.2% DMSO (illuminated with the TRITC filter set) or 10 μM malachite green (illuminated with the Cy5 filter set). […] MTT absorbance readings were performed at 550 nm with 650 nm absorbance used for background subtraction. […]"}, "[3]": {"experiment": "Fluorescence emission of Beetroot with DFHO", "type": "biochemical", "conditions": "20 μM Beetroot, 2 μM DFHO", "procedure": "(§1) To test whether Beetroot can activate DFHO, the fluorescence emission spectrum of the Beetroot-DFHO complex was measured. In brief, 20 μM Beetroot and 2 μM DFHO were mixed, and the fluorescence emission of the Beetroot-DFHO complex was measured. […] To test whether Beetroot can activate DFHBI-1T, the fluorescence emission spectrum of the Beetroot-DFHBI-1T complex was measured using the same protocol described in FIG. 32A. […] To test whether Beetroot can activate BI, the fluorescence emission spectrum of the Beetroot-BI complex was measured using the same protocol described in FIG. 32A. […] To test whether Corn can activate DFAME, the fluorescence emission spectrum of the Corn-DFAME complex was measured using the same protocol described in FIG. 32A."}, "[4]": {"system": "HEK293T cells", "experiment": "Imaging Beetroot in HEK293T cells", "type": "cell-based", "conditions": "Tornado circular RNA, tRNA or F30-tRNA scaffold, 10 μM DFAME, 5 mM MgCl2", "procedure": "FIGS. 35A-35B show imaging Beetroot in HEK293T cells. To test whether Beetroot could be imaged in HEK293T cells, Beetroot was expressed in Tornado. […] FIG. 35B are images showing HEK293T cells which were transiently transfected with Beetroot-expressing plasmids. About 36 hours after transfection, these transfected HEK293T cells were incubated with 10 μM DFAME and 5 mM MgCl2 for 1 hour prior to imaging. Detectable levels of red fluorescence were not observed in HEK293T cells. Data shown here is a representative image from three independent cell cultures. Scale bar, […].\nPrior to imaging experiments, HEK293T cells were incubated with 1 μl of Hoechst 33342 (Thermo Fisher Scientific, H3570) per 2 ml of imaging media (phenol red-free Dulbeco's modified Eagle's medium (Thermo Fisher Scientific 31053-028) supplemented with 10% fetal bovine serum (Corning 35-010-CV), 100 U ml-1 of penicillin and […] of streptomycin, 1× GlutaMAX (Thermo Fisher Scientific, 35050-061) and 1 mM sodium pyruvate (Thermo Fisher Scientific, 11360-070)). For imaging experiments of RNA-fluorophore complex, HEK293T cells were incubated with imaging media supplemented with a final concentration of 10 μM fluorophore (DFHO or DFAME) and 5 mM MgCl2 for one hour prior to imaging."}, "[5]": {"experiment": "Fluorescence emission of Beetroot with BI", "type": "biochemical", "conditions": "20 μM RNA, 2 μM dye", "procedure": "as §1"}, "[6]": {"experiment": "Fluorescence activation of DFAME by aptamers in vitro", "type": "biochemical", "conditions": "in vitro", "procedure": "as §1\nThe eluted RNAs were then ethanol precipitated, reverse transcribed, PCR amplified and in vitro transcribed to yield the pool for the next SELEX round. The presence of fluorescent RNA species in each pool was assessed by mixing 20 μM RNA and 10 μM DFAME and measuring fluorescence emission of this solution on a fluorometer in comparison with the fluorophore alone. At this point, RNAs were cloned into bacterial expression plasmids for FACS-based screening.\ndsDNA encoding the top-performing RNA sequences from the brightest bacterial colonies was PCR amplified from the purified plasmids. […] The resulting RNA was then purified using Zymo RNA concentrator columns and quantified by absorbance using a Thermo Scientific NanoDrop 2000 spectrophotometer. For absorption, excitation and emission spectra measurements, “excess RNA” conditions and limiting amount of fluorophore was used to ensure that no free fluorophore contributes to the absorbance or fluorescence signal. The RNA concentration used for fluorescence and absorbance measurements was 20 μM and 50 μM, respectively, while the dye concentration was 2 μM and 5 μM, respectively. All in vitro RNA properties were measured in 40 mM HEPES pH 7.4, 100 mM KCl, 5 mM MgCl2 buffer, unless specified."}, "[7]": {"system": "Corn", "experiment": "Beetroot-Corn heterodimer formation, nondenaturing electrophoretic analysis", "type": "binding", "conditions": "equimolar mixture, heat-denatured and cooled", "procedure": "FIG. 27B is an image showing that Beetroot is a dimer in vitro. To test this, nondenaturing electrophoretic analysis was performed on a wild-type Beetroot and a mutant Beetroot with mutations in the G-quadruplex that are expected to disrupt any putative dimer formation. […] The RNA band marked with an asterisk (*) reflects an RNA side product from in vitro transcription. […] To test whether Beetroot and Corn can form heterodimers in vitro, nondenaturing electrophoretic analysis was performed on Beetroot, Corn, and a Beetroot-Corn equimolar mixture to measure heterodimer formation. If Beetroot (107 nt) and Corn (250 nt) are orthogonal dimers, two distinct molecular species would be expected: dimeric Beetroot and dimeric Corn. On the other hand, if Beetroot-Corn heterodimers are formed, a third molecular species, reflecting a Beetroot-Corn heterodimer, with a molecular weight in between dimeric Beetroot and dimeric Corn, would be expected. […] In-gel staining with DFAME and DFHO also confirmed the identity of the putative dimeric species. The RNA band marked with an asterisk (*) reflects an RNA side product from in vitro transcription. A final concentration of 350 nM RNA was used in each lane. […]"}, "[8]": {"experiment": "Fluorescence emission of Beetroot with DFHBI-1T", "type": "biochemical", "conditions": "20 μM RNA, 2 μM dye", "procedure": "as §1"}, "[9]": {"system": "Beetroot", "experiment": "Beetroot homodimer dissociation, serial dilution and non-denaturing gel electrophoresis", "type": "binding", "conditions": "dilution 1000 nM to 1.4 nM, 20° C., 12 hours; read-out: Homodimerization dissociation constant (Kd)", "procedure": "FIGS. 33A-33C provide the dissociation constant (Kd) of Beetroot homodimer. […] These RNAs were incubated at 20° C. for 12 hours and then analyzed using non-denaturing gel electrophoresis (FIG. 33A). The fraction of Beetroot monomer (FIG. 33B) and Beetroot dimer (FIG. 33C) were quantified after SYBR Gold staining. […] The RNA band marked with an asterisk (*) reflects an RNA side product from in vitro transcription. The same side product band was also observed in FIGS. 27B-27C. Quantification shown in […] is based on two independent experiments. FIG. 33D are images showing genetic encoding of simple macromolecular RNA assemblies in cells using Corn when circular RNAs containing 3 and 5 copies of Corn were expressed in HEK293T cells. Clusters of these Corn-containing RNAs were observed as large intracellular puncta. Data shown here is a representative image from three independent cell cultures. Scale bar, 20 μm. FIG. 33E is a graph showing the quantification of the fraction of Corn and Beetroot in the cell that accumulates in puncta. As the valency of Corn increases from three to five, the fraction of Corn participating in the RNA assembly increases from 28±12% to 57±14%. Compared to 5× Corn, a fraction of 27±11% of 5× Beetroot are participating in the Beetroot RNA assembly. Values are means±s.d. FIG. 33F is a graph showing quantification of RNA assembly size in cells. […]"}}, "note": "“Also recorded” adds a separate entry of the source."}
{"molecule": "COC(=O)/C=C/C1=NC(=C\\c2cc(F)c(O)c(F)c2)/C(=O)N1C", "note": "[DFAME, methyl 3-((Z)-4-(3,5-difluoro-4-hydroxybenzylidene)-1-methyl-5-oxo-4,5-dihydro-1H-imidazol-2-yl)acrylate]", "values": [{"measurement": "Emission maximum", "setting": "[1]", "value": 641, "unit": "nm"}, {"measurement": "Excitation maximum", "setting": "[1]", "value": 508, "unit": "nm"}, {"measurement": "Fluorescence in solution", "setting": "[1]; 10 μM", "value": "very low red fluorescence"}, {"measurement": "Extinction coefficient", "setting": "[1]; DFAME alone, at 514 nm, pH 7.4 buffer", "value": "32,500 M^−1cm^−1"}, {"measurement": "Brightness (extinction coefficient × quantum yield)", "setting": "[1]; relative to Corn-DFHO", "value": 1.3}, {"measurement": "Fluorescence quantum yield", "setting": "[1]; versus Rhodamine B", "value": 0.0029}, {"measurement": "Cytotoxicity", "setting": "[2]", "value": "low cytotoxicity"}]}
{"molecule": "Beetroot: red-fluorescent dimeric fluorogenic RNA aptamer binding DFAME, SEQ ID NO: 96 (GUUAGGCAGAGGUGGGUGGUGUGGAGGAGUAUCUGUC; RNA, backbone not given here)", "values": [{"measurement": "Binding and activation of DFHO fluorescence", "setting": "[3]", "value": "weakly binds and activates; also recorded: only weakly bind and activate"}, {"measurement": "Red fluorescence in cells", "setting": "[4]", "value": "not observed"}, {"measurement": "Binding and activation of BI fluorescence", "setting": "[5]", "value": "cannot bind and activate"}, {"measurement": "Fold fluorescence enhancement of DFAME", "setting": "[6]", "value": "approximately 40 fold"}, {"measurement": "Heterodimer formation with Corn", "setting": "[7]", "value": "no mixed Corn-Beetroot heterodimers"}, {"measurement": "Binding and activation of DFHBI-1T fluorescence", "setting": "[8]", "value": "cannot bind and activate"}, {"measurement": "Kd", "setting": "[9]", "value": "< 1", "unit": "nM"}]}
